According to publication PMC11678869, “Functional Role of Odorant-Binding Proteins in Response to Sex Pheromone Component Z8-14:Ac in Grapholita molesta (Busck)” (Insects, 2024):

Assays:
GmolPBP2 mutant F12A = GmolPBP2 mutant F12A (Grapholita molesta, UniProt A0A059VC28, F37A); experiment: Fluorescence competitive binding assay, GmolPBP2 mutant
Protocol: (§1) The binding affinities of three rGmolPBPs and two rGmolGOBPs for Z8-14:Ac were determined using an F-2700 fluorescence spectrophotometer (Hitachi, Tokyo, Japan). First, we measured the dissociation constants (Kd) of the rGmolPBPs (or rGmolGOBPs) binding to 1−NPN. Each protein was diluted to 2 μM with 20 mM Tris-HCl buffer (pH 7.4); then, 2 mL of the protein solution was transferred to a quartz cuvette and titrated with 1 mM 1−NPN to a final concentration of 1–18 μM. As the doses of 1−NPN were increased, the increasing amplitude of the fluorescence intensity decreased, and finally, the binding of the protein to 1−NPN reached saturation. The Kd values were calculated using the nonlinear regression method and the Scatchard equation. Second, we measured the inhibitory constant (Ki) of Z8-14:Ac’s competitive binding with each rGmolPBP (or rGmolGOBP) from the protein/1−NPN complex. The initial fluorescence intensity values were measured after a 2 min reaction in 2 mL solution of 20 mM Tris-HCl (pH 7.4) containing 2 µM rGmolPBP (or rGmolGOBP) protein and 2 µM 1−NPN. Then, the solution was titrated with aliquots of 1 mM Z8-14:Ac to obtain final concentrations in the range of 1–14 µM, and the fluorescence intensity value of each reaction was recorded. The Ki values were calculated using the following equation: Ki = [IC50]/(1 + [1 − NPN]/Kd) where IC50 is the concentration of Z8-14:Ac when half of the initial fluorescence intensity value of the rGmolPBP (or GmolGOBP)/1−NPN complex is replaced, [1 − NPN] represents the concentration of free 1−NPN, and Kd is the dissociation constant of the rGmolPBP (or GmolGOBP)/1−NPN complex.
(§2) Five amino acids—Phe12, Leu68, Ile94, Arg109, and Ile113—were identified as having lower binding free energies for GmolPBP2 interaction with Z8-14:Ac. To assess their role in binding, these residues were individually mutated to alanine using site-directed mutagenesis. Primers for mutagenesis were designed following the protocols recommended by the Fast Mutagenesis System (TransGen Biotech, Beijing, China) (Table S1). These mutations were introduced into the pET-28a(+)–GmolPBP2 plasmid using a Fast Mutagenesis System kit ([…]) and site-directed mutagenesis primers generating the mutants F12A, L68A, I94A, R109A, and I113A, respectively. Each plasmid was verified by DNA sequencing to confirm the presence of the desired mutation. Expression and purification of the mutated proteins followed the same protocols used for the wild-type GmolPBP2. The binding affinities of the five mutants for Z8-14:Ac were determined via fluorescence competitive binding assays. An increase in Ki values for the mutants relative to the wild-type GmolPBP2 would indicate that the corresponding amino acid residues may be crucial for binding to Z8-14:Ac.

GmolPBP2 mutant I113A = GmolPBP2 mutant I113A (Grapholita molesta, UniProt A0A059VC28, I138A); experiment: as above
Chain of GmolPBP2 mutant I113A (A0A059VC28 entry or part of it I138A): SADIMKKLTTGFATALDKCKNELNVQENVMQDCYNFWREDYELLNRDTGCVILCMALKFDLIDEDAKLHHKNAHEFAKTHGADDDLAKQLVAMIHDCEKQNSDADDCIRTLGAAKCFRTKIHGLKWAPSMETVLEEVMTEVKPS
Protocol: as §1, §2

GmolPBP2 mutant I94A = GmolPBP2 mutant I94A (Grapholita molesta, UniProt A0A059VC28, I119A); experiment: as above
Chain of GmolPBP2 mutant I94A (A0A059VC28 entry or part of it I119A): as the sequence (A0A059VC28 entry or part of it I138A) above, with I94A, A113I counted along it
Protocol: as §1, §2

GmolPBP2 mutant L68A = GmolPBP2 mutant L68A (Grapholita molesta, UniProt A0A059VC28, L93A); experiment: as above
Chain of GmolPBP2 mutant L68A (A0A059VC28 entry or part of it L93A): as the sequence (A0A059VC28 entry or part of it I138A) above, with L68A, A113I counted along it
Protocol: as §1, §2

GmolPBP2 mutant R109A = GmolPBP2 mutant R109A (Grapholita molesta, UniProt A0A059VC28, R134A); experiment: as above
Chain of GmolPBP2 mutant R109A (A0A059VC28 entry or part of it R134A): as the sequence (A0A059VC28 entry or part of it I138A) above, with R109A, A113I counted along it
Protocol: as §1, §2

OFM males = experiment: Field trapping with delta traps, peach orchard; assay type: in vivo, Grapholita molesta; details: for Inhibition Rate of OFM Males: vs 100:4:0
Protocol: (§3) To determine the inhibitory effects on OFM male adults and the impact on the trapping effects of PFM male adults, varying amounts of Z8-14:Ac (0, 5, 10, 25, 50, 75, 100, 125, 150 μg) or Z10-14:Ac (0, 25, 50, 100, 150, 250, 350, 450, and 550 μg) were added to rubber septa loaded with a constant dosage of the main pheromone (500 μg of Z8-12:Ac and 20 μg of E8-12:Ac) of the PFM. Trapping experiments of Z8-14:Ac were carried out in peach and pear orchards in Yan’an and Xinjiang (China), respectively. Trapping tests of Z10-14:Ac were performed in pear orchards in Xinjiang (China). Each orchard had nine plots, with three plots in one field. Each plot consisted of a linear arrangement of traps loaded with a constant dosage of the main pheromones and different percentages of the secondary pheromone Z8-14:Ac or Z10-14:Ac of the PFM. Plots in the same field were placed 30 m apart, and fields were ≥1 km apart. The traps were hung 1.4 m from the ground on a suspension bracket between two rows of peach or pear trees from 10 June to 25 July 2021 in Xinjiang and from 15 June to 30 July 2021 in Yan’an. The positions of the traps within the plot were randomly arranged. Every 5 days, counts were taken, and the traps were rotated to the adjacent position to avoid any potential position effects. The septa loaded with sex pheromone components were replaced with new ones after every 15 days of suspension. The data were analyzed using a one-way ANOVA, and the differences in the average trapping of OFM and PFM males using sex attractants containing different amounts of Z8-14:Ac or Z10-14:Ac were further analyzed using Tukey’s HSD test, both of which were performed using SPSS 23.0.

PFM males = experiment: Field trapping with delta traps, pear orchard; assay type: in vivo, Grapholita funebrana
Protocol: as §3

[1] = peach orchard, Z8-12:Ac/E8-12:Ac/Z8-14:Ac 500/20/5 μg (100:4:1)
[2] = peach orchard, Z8-12:Ac/E8-12:Ac/Z8-14:Ac 500/20/10 μg (100:4:2)
[3] = peach orchard, Z8-12:Ac/E8-12:Ac/Z8-14:Ac 500/20/25 μg (100:4:5)
[4] = peach orchard, Z8-12:Ac/E8-12:Ac/Z8-14:Ac 500/20/50 μg (100:4:10)
[5] = peach orchard, Z8-12:Ac/E8-12:Ac/Z8-14:Ac 500/20/75 μg (100:4:15)
[6] = peach orchard, Z8-12:Ac/E8-12:Ac/Z8-14:Ac 500/20/100 μg (100:4:20)
[7] = peach orchard, Z8-12:Ac/E8-12:Ac/Z8-14:Ac 500/20/125 μg (100:4:25)
[8] = peach orchard, Z8-12:Ac/E8-12:Ac/Z8-14:Ac 500/20/150 μg (100:4:30)

Chain of GmolPBP2 mutant F12A (A0A059VC28 entry or part of it F37A): as the sequence (A0A059VC28 entry or part of it I138A) above, with F12A, A113I counted along it

CCCCC/C=C\CCCCCCCOC(C)=O [Z8-14:Ac, (Z)-8-tetradecenyl acetate]
IC50 (GmolPBP2 mutant F12A): > 14000 nM | Ki (GmolPBP2 mutant F12A): > 14000 nM | binding affinity relative to wild-type GmolPBP2 (GmolPBP2 mutant F12A; mutant F12A): lost its affinity | IC50 (GmolPBP2 mutant I113A): 980 ± 38 nM | Ki (GmolPBP2 mutant I113A): 520 ± 20 nM | binding affinity relative to wild-type GmolPBP2 (GmolPBP2 mutant I113A; mutant I113A): binding affinities comparable to the wild-type | IC50 (GmolPBP2 mutant I94A): 1082 ± 8 nM | Ki (GmolPBP2 mutant I94A): 564 ± 4 nM | binding affinity relative to wild-type GmolPBP2 (GmolPBP2 mutant I94A; mutant I94A): binding affinities comparable to the wild-type | IC50 (GmolPBP2 mutant L68A): 1130 ± 26 nM | Ki (GmolPBP2 mutant L68A): 589 ± 7 nM | binding affinity relative to wild-type GmolPBP2 (GmolPBP2 mutant L68A; mutant L68A): binding affinities comparable to the wild-type | IC50 (GmolPBP2 mutant R109A): 1260 ± 29 nM | Ki (GmolPBP2 mutant R109A): 655 ± 15 nM | binding affinity relative to wild-type GmolPBP2 (GmolPBP2 mutant R109A; mutant R109A): did not significantly affect the binding affinity | Total OFM Males/Trap (OFM males; [1]): 46.08±3.25 b Males/Trap | Inhibition Rate of OFM Males (OFM males; [1]): 58.81% | Total OFM Males/Trap (OFM males; [2]): 40.89±2.35 b Males/Trap | Inhibition Rate of OFM Males (OFM males; [2]): 63.45% | Total OFM Males/Trap (OFM males; [3]): 14.82±1.47 c Males/Trap | Inhibition Rate of OFM Males (OFM males; [3]): 86.75% | Total OFM Males/Trap (OFM males; [4]): 9.04±1.08 c Males/Trap | Inhibition Rate of OFM Males (OFM males; [4]): 91.92% | Total OFM Males/Trap (OFM males; [5]): 9.55±1.09 c Males/Trap | Inhibition Rate of OFM Males (OFM males; [5]): 91.46% | Total OFM Males/Trap (OFM males; [6]): 9.67±1.52 c Males/Trap | Inhibition Rate of OFM Males (OFM males; [6]): 91.36% | Total OFM Males/Trap (OFM males; [7]): 6.86±0.24 c Males/Trap | Inhibition Rate of OFM Males (OFM males; [7]): 93.87% | Total OFM Males/Trap (OFM males; [8]): 7.96±1.19 c Males/Trap | Inhibition Rate of OFM Males (OFM males; [8]): 92.88% | reduction of the number of OFM males caught (OFM males; peach orchard, adding 5–30% of Z8-14:Ac to Z8-12:Ac and E8-12:Ac): more than 86% | reduction of the capture of OFM males (OFM males; peach orchards, adding 1–2% of Z8-14:Ac to Z8-12:Ac and E8-12:Ac (100:4)): 58.81–63.45% | Total PFM Males/Trap (PFM males; Z8-12:Ac/E8-12:Ac/Z8-14:Ac 500/20/5 μg (100:4:1)): 64.07 ± 6.89 a Males/Trap | Total PFM Males/Trap (PFM males; Z8-12:Ac/E8-12:Ac/Z8-14:Ac 500/20/10 μg (100:4:2)): 45.47 ± 6.64 a Males/Trap | Total PFM Males/Trap (PFM males; Z8-12:Ac/E8-12:Ac/Z8-14:Ac 500/20/25 μg (100:4:5)): 43.06 ± 0.34 a Males/Trap | Total PFM Males/Trap (PFM males; Z8-12:Ac/E8-12:Ac/Z8-14:Ac 500/20/50 μg (100:4:10)): 53.73 ± 7.04 a Males/Trap | Total PFM Males/Trap (PFM males; Z8-12:Ac/E8-12:Ac/Z8-14:Ac 500/20/75 μg (100:4:15)): 48.57 ± 6.31 a Males/Trap | Total PFM Males/Trap (PFM males; Z8-12:Ac/E8-12:Ac/Z8-14:Ac 500/20/100 μg (100:4:20)): 42.36 ± 8.46 a Males/Trap | Total PFM Males/Trap (PFM males; Z8-12:Ac/E8-12:Ac/Z8-14:Ac 500/20/125 μg (100:4:25)): 57.52 ± 21.06 a Males/Trap | Total PFM Males/Trap (PFM males; Z8-12:Ac/E8-12:Ac/Z8-14:Ac 500/20/150 μg (100:4:30)): 72.67 ± 12.44 a Males/Trap | effect on the number of PFM males (PFM males; adding 1–30% of Z8-14:Ac to the PFM sex attractants): neither significantly increased nor inhibited
